# According to ChEMBL document CHEMBL1201862, “PubChem BioAssay data set” (2004):
#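 Cultured in 96-well plates, cells were exposed to test compound for 48 hours across five concentrations. GI50: concentration for 50% inhibition of growth.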 The source made the active and inactive calls. No stated cut-off is given here; in the data, active = GI50 up to about 1.1 µM and inactive = higher.
# Experiments:
# Test in all cases: NCI anticancer screen, dose series, 48 h
# HOP-62 = tested on: HOP-62
# SF-268 = tested on: SF-268
# CCRF-CEM = tested on: CCRF-CEM
# OVCAR-4 = tested on: OVCAR-4
# 786-0 = tested on: 786-0
# CAKI-1 = tested on: CAKI-1
# NCI-H226 = tested on: NCI-H226
# PC-3 = tested on: PC-3
# COLO 205 = tested on: COLO 205
# NCI-H522 = tested on: NCI-H522
# HCT-116 = tested on: HCT-116
# SK-MEL-28 = tested on: SK-MEL-28
# U-251 = tested on: U-251
# NCI-H460 = tested on: NCI-H460
# MOLT-4 = tested on: MOLT-4
# Hs-578T = tested on: Hs-578T
# NCI-H23 = tested on: NCI-H23
# BT-549 = tested on: BT-549
# SK-MEL-5 = tested on: SK-MEL-5
# OVCAR-3 = tested on: OVCAR-3
# MDA-MB-435 = tested on: MDA-MB-435
# K562 = tested on: K562
# OVCAR-8 = tested on: OVCAR-8
# OVCAR-5 = tested on: OVCAR-5
# ACHN = tested on: ACHN
# A498 = tested on: A498
# KM12 = tested on: KM12
# HCC 2998 = tested on: HCC 2998
# RXF 393 = tested on: RXF 393
# IGROV-1 = tested on: IGROV-1
# MCF7 = tested on: MCF7
# SF-295 = tested on: SF-295
# EKVX = tested on: EKVX
# UACC-62 = tested on: UACC-62
# Malme-3M = tested on: Malme-3M
# HOP-92 = tested on: HOP-92
# UO-31 = tested on: UO-31
# SN12C = tested on: SN12C
# SF-539 = tested on: SF-539
# NCI/ADR-RES = tested on: NCI/ADR-RES
# HL-60 = tested on: HL-60
# DU-145 = tested on: DU-145
# M14 = tested on: M14
# TK-10 = tested on: TK-10
# HCT-15 = tested on: HCT-15
# SNB-75 = tested on: SNB-75
# SW-620 = tested on: SW-620
# A549 = tested on: A549
# T47D = tested on: T47D
# UACC-257 = tested on: UACC-257
# LOX IMVI = tested on: LOX IMVI
# MDA-N = tested on: MDA-N
# RPMI-8226 = tested on: RPMI-8226
# SNB-19 = tested on: SNB-19
# HT-29 = tested on: HT-29
# SK-OV-3 = tested on: SK-OV-3
# SR = tested on: SR
# MDA-MB-231 = tested on: MDA-MB-231
# SK-MEL-2 = tested on: SK-MEL-2
smiles,measurement,setting,value
COc1ccc(/N=N/C(=O)NC(CC(C)C)C(=O)NC(Cc2ccccc2)C(=O)O)cc1 (configuration not stated),GI50,HOP-62,> 100 µM (inactive)
same,GI50,SF-268,1.53 µM (inactive)
same,GI50,CCRF-CEM,0.929 µM (active)
same,GI50,OVCAR-4,57.5 µM (inactive)
same,GI50,786-0,> 100 µM (inactive)
same,GI50,CAKI-1,> 100 µM (inactive)
same,GI50,NCI-H226,23.3 µM (inactive)
same,GI50,PC-3,0.463 µM (active)
same,GI50,COLO 205,1.71 µM (inactive)
same,GI50,NCI-H522,6.24 µM (inactive)
same,GI50,HCT-116,32.4 µM (inactive)
same,GI50,SK-MEL-28,4.85 µM (inactive)
same,GI50,U-251,> 100 µM (inactive)
same,GI50,NCI-H460,3.78 µM (inactive)
same,GI50,MOLT-4,0.706 µM (active)
same,GI50,Hs-578T,> 100 µM (inactive)
same,GI50,NCI-H23,16.3 µM (inactive)
same,GI50,BT-549,> 100 µM (inactive)
same,GI50,SK-MEL-5,2.61 µM (inactive)
same,GI50,OVCAR-3,16.5 µM (inactive)
same,GI50,MDA-MB-435,0.705 µM (active)
same,GI50,K562,0.287 µM (active)
same,GI50,OVCAR-8,> 100 µM (inactive)
same,GI50,OVCAR-5,1.88 µM (inactive)
same,GI50,ACHN,0.347 µM (active)
same,GI50,A498,> 100 µM (inactive)
same,GI50,KM12,11.9 µM (inactive)
same,GI50,HCC 2998,2.63 µM (inactive)
same,GI50,RXF 393,> 100 µM (inactive)
same,GI50,IGROV-1,11.5 µM (inactive)
same,GI50,MCF7,18.3 µM (inactive)
same,GI50,SF-295,1.62 µM (inactive)
same,GI50,EKVX,40.3 µM (inactive)
same,GI50,UACC-62,0.711 µM (active)
same,GI50,Malme-3M,7.55 µM (inactive)
same,GI50,HOP-92,16.2 µM (inactive)
same,GI50,UO-31,3.37 µM (inactive)
same,GI50,SN12C,> 100 µM (inactive)
same,GI50,SF-539,0.31 µM (active)
same,GI50,NCI/ADR-RES,> 100 µM (inactive)
same,GI50,HL-60,0.685 µM (active)
same,GI50,DU-145,0.634 µM (active)
same,GI50,M14,0.459 µM (active)
same,GI50,TK-10,> 100 µM (inactive)
same,GI50,HCT-15,0.378 µM
same,GI50,SNB-75,61.4 µM (inactive)
same,GI50,SW-620,7.73 µM (inactive)
same,GI50,A549,2.12 µM (inactive)
same,GI50,T47D,1.06 µM (active)
same,GI50,UACC-257,3.41 µM (inactive)
same,GI50,LOX IMVI,18.2 µM (inactive)
same,GI50,MDA-N,0.7 µM (active)
same,GI50,RPMI-8226,2.28 µM (inactive)
same,GI50,SNB-19,72.9 µM (inactive)
same,GI50,HT-29,> 100 µM (inactive)
NC1CC(N)c2c(Br)sc(Br)c21 (configuration not stated),GI50,HOP-62,86.1 µM (inactive)
same,GI50,SF-268,67.3 µM (inactive)
same,GI50,CCRF-CEM,> 100 µM (inactive)
same,GI50,OVCAR-4,> 100 µM (inactive)
same,GI50,786-0,95.3 µM (inactive)
same,GI50,CAKI-1,> 100 µM (inactive)
same,GI50,NCI-H226,77.1 µM (inactive)
same,GI50,COLO 205,> 100 µM (inactive)
same,GI50,SK-OV-3,> 100 µM (inactive)
same,GI50,NCI-H522,44.1 µM (inactive)
same,GI50,HCT-116,87.9 µM (inactive)
same,GI50,SK-MEL-28,> 100 µM (inactive)
same,GI50,U-251,> 100 µM (inactive)
same,GI50,NCI-H460,> 100 µM (inactive)
same,GI50,MOLT-4,67.5 µM (inactive)
same,GI50,SR,59.4 µM (inactive)
same,GI50,Hs-578T,> 100 µM (inactive)
same,GI50,NCI-H23,> 100 µM (inactive)
same,GI50,BT-549,> 100 µM (inactive)
same,GI50,SK-MEL-5,> 100 µM (inactive)
same,GI50,OVCAR-3,> 100 µM (inactive)
same,GI50,MDA-MB-435,> 100 µM (inactive)
same,GI50,K562,> 100 µM (inactive)
same,GI50,OVCAR-8,55.6 µM (inactive)
same,GI50,MDA-MB-231,> 100 µM (inactive)
same,GI50,OVCAR-5,> 100 µM (inactive)
same,GI50,ACHN,> 100 µM (inactive)
same,GI50,A498,> 100 µM (inactive)
same,GI50,KM12,> 100 µM (inactive)
same,GI50,HCC 2998,55.8 µM (inactive)
same,GI50,IGROV-1,39.1 µM (inactive)
same,GI50,MCF7,> 100 µM (inactive)
same,GI50,SF-295,98.9 µM (inactive)
same,GI50,EKVX,> 100 µM (inactive)
same,GI50,UACC-62,> 100 µM (inactive)
same,GI50,Malme-3M,> 100 µM (inactive)
same,GI50,HOP-92,28.6 µM (inactive)
same,GI50,SK-MEL-2,> 100 µM (inactive)
same,GI50,UO-31,41.4 µM (inactive)
same,GI50,SN12C,> 100 µM (inactive)
same,GI50,SF-539,> 100 µM (inactive)
same,GI50,NCI/ADR-RES,> 100 µM (inactive)
same,GI50,DU-145,> 100 µM (inactive)
same,GI50,M14,> 100 µM (inactive)
same,GI50,TK-10,> 100 µM (inactive)
same,GI50,HCT-15,> 100 µM
same,GI50,SW-620,62.2 µM (inactive)
same,GI50,A549,97.7 µM (inactive)
same,GI50,T47D,54 µM (inactive)
same,GI50,UACC-257,> 100 µM (inactive)
same,GI50,LOX IMVI,58.1 µM (inactive)
same,GI50,MDA-N,> 100 µM (inactive)
same,GI50,HT-29,> 100 µM (inactive)
NCCC1(N)CCNCC1,GI50,SF-268,> 100 µM (inactive)
same,GI50,CCRF-CEM,> 100 µM (inactive)
same,GI50,OVCAR-4,> 100 µM (inactive)
same,GI50,786-0,> 100 µM (inactive)
same,GI50,CAKI-1,> 100 µM (inactive)
same,GI50,NCI-H226,> 100 µM (inactive)
same,GI50,PC-3,> 100 µM (inactive)
same,GI50,COLO 205,> 100 µM (inactive)
same,GI50,SK-OV-3,> 100 µM (inactive)
same,GI50,NCI-H522,> 100 µM (inactive)
same,GI50,HCT-116,> 100 µM (inactive)
same,GI50,SK-MEL-28,48.4 µM (inactive)
same,GI50,U-251,> 100 µM (inactive)
same,GI50,NCI-H460,> 100 µM (inactive)
same,GI50,MOLT-4,> 100 µM (inactive)
same,GI50,SR,> 100 µM (inactive)
same,GI50,Hs-578T,> 100 µM (inactive)
same,GI50,NCI-H23,> 100 µM (inactive)
same,GI50,BT-549,> 100 µM (inactive)
same,GI50,SK-MEL-5,> 100 µM (inactive)
same,GI50,MDA-MB-435,> 100 µM (inactive)
same,GI50,K562,> 100 µM (inactive)
same,GI50,OVCAR-8,> 100 µM (inactive)
same,GI50,MDA-MB-231,> 100 µM (inactive)
same,GI50,OVCAR-5,> 100 µM (inactive)
same,GI50,ACHN,> 100 µM (inactive)
same,GI50,A498,> 100 µM (inactive)
same,GI50,KM12,> 100 µM (inactive)
same,GI50,RXF 393,> 100 µM (inactive)
same,GI50,IGROV-1,> 100 µM (inactive)
same,GI50,SF-295,> 100 µM (inactive)
same,GI50,EKVX,> 100 µM (inactive)
same,GI50,UACC-62,> 100 µM (inactive)
same,GI50,Malme-3M,> 100 µM (inactive)
same,GI50,HOP-92,< 0.01 µM (active)
same,GI50,SK-MEL-2,> 100 µM (inactive)
same,GI50,UO-31,> 100 µM (inactive)
same,GI50,SN12C,> 100 µM (inactive)
same,GI50,SF-539,> 100 µM (inactive)
same,GI50,NCI/ADR-RES,> 100 µM (inactive)
same,GI50,HL-60,> 100 µM (inactive)
same,GI50,DU-145,> 100 µM (inactive)
same,GI50,M14,> 100 µM (inactive)
same,GI50,TK-10,> 100 µM (inactive)
same,GI50,HCT-15,> 100 µM
same,GI50,SNB-75,13.7 µM (inactive)
same,GI50,SW-620,> 100 µM (inactive)
same,GI50,A549,> 100 µM (inactive)
same,GI50,T47D,> 100 µM (inactive)
same,GI50,UACC-257,> 100 µM (inactive)
same,GI50,MDA-N,> 100 µM (inactive)
same,GI50,RPMI-8226,> 100 µM (inactive)
same,GI50,SNB-19,> 100 µM (inactive)
same,GI50,HT-29,> 100 µM (inactive)
